Source: US8822211B2, “Device and method for concentrating and detecting pathogenic microbes from blood products and/or their derivatives” (Becton Dickinson Infusion Therapy Systems Inc., priority 2001, dated 2014)
Several values for one entry are separate records, joined by “and”; a condition that tells them apart may be missing. Equal entries are not always repeated.

What was measured:
Assay type in all cases: cell-based
[1] = test system: platelets (platelet concentrate PC 6); test: Platelet aggregation with thrombin, counting of residual platelets after 11 μm filtration; conditions: 10 IU thrombin per test, PC 6, 5 minutes, 11 μm filter
Protocol: Thrombin is a strong agonist of platelet aggregation. Thrombin solutions (reference T8885 Sigma) were prepared at a concentration of 100 IU/ml when used at the rate of 10 IU/test and in diluted solution form (100 μl of thrombin mother solution with the addition of 900 μl of PBS buffer) when used at the rate of 1 IU/test.
Platelet aggregation by the intermediary of thrombin comprised:
placing 160 μl of platelet concentrate in a tube to which was added 20 μl of PBS buffer and 20 μl of thrombin;
(§1) the tubes were agitated manually for 5 minutes at ambient temperature;
800 μl of PBS buffer was added to the tubes;
the content of the tubes was filtered on a filter with a porosity of 11 μm;
dilutions were created in series 1/20 to 1/10 from the filtrates;
[…] of each dilution of the filtrate on a CB04 membrane were filtered;
an esterase labeling was performed; and
the platelets possibly retained on the membrane were counted.

E. coli = test: Platelet aggregation with thrombin in the presence of pathogenic microbes, bacteria counting; conditions: for Counting results (E. coli): PC 6, 11 μm filter
Protocol: The experimental studies performed to evaluate the aggregation of pathogenic microbes in the presence of thrombin comprised the following steps:
a cryobead of E. coli was introduced into a tube of 9 ml of tryptone soy broth and incubated at 37° C. for 18-24 hours;
160 μl of platelet concentrate was added to 20 μl of the E. coli suspension and 20 μl of thrombin;
the tube was agitated manually for 5 minutes at ambient temperature;
800 μl of PBS buffer was added;
filtration was performed through a filter of 11 μm porosity;
dilutions in series were performed: 1/20 and 1/10 and 1/10;
filtration was performed on 100 μl of sample on a CB04 membrane;
labeling with esterase was performed; and […]

[2] = test system: Staphylococcus epidermidis; test: Platelet aggregation with ADP in the presence of pathogenic microbes, bacteria counting; conditions: 10 μM ADP
Protocol: Platelet aggregation in the presence of ADP comprised the following steps:
a cryobead of Staphylococcus epidermidis was introduced into a tube of 9 ml of tryptone soy broth and incubated at 37° C. for 18-24 hours;
onto 400 μl of platelet concentrate there was added 50 μl of the suspension of Staph. epidermidis and 50 μl of ADP;
as §1
500 μl of PBS buffer was added;
filtration was performed on a filter with a porosity of 5 μm;
dilutions were made in series of 1/20 and 1/10 and 1/10;
100 μl of the sample was filtered on a CB04 membrane;
labeling with an esterase was performed; and
The pathogenic microbes were seeded at a high concentration to augment a possible trapping effect. ADP was added to the platelets and the bacteria at a concentration of […].

Thrombin was tested, and the “platelet count after aggregation and filtration” value [1] was 44 and 30, the “Counting results (E. coli)” value (E. coli; 1 IU thrombin) was 140 and 167 and the “Counting results (E. coli)” value (E. coli; 10 IU thrombin) was 109 and 122. The “clot formation after addition” value (E. coli; platelet concentrate with E. coli) was “A clot appeared almost instantly”.

`Nc1ncnc2c1ncn2[C@@H]1O[C@H](COP(=O)(O)OP(=O)(O)O)[C@@H](O)[C@H]1O` [ADP] was tested, and the “bacteria recovered after the aggregation step” value ([2]; PC 6) was 74%, the Concentration bacteria/ml ([2]; PC 6, 5 μm filter) was 4.7E+07 bacteria/ml and the “Results (bacteria count)” value ([2]; PC 6, 5 μm filter) was 492 and 441.
